Assays:
Experiment in all cases: relative viability (nuclei count vs DMSO), 5 days (fraction); higher = more cells survive
Tosedostat + Lapatinib = compound: CC(C)C[C@@H](C(=O)N[C@H](C(=O)OC1CCCC1)c1ccccc1)[C@H](O)C(=O)NO [Tosedostat] + CS(=O)(=O)CCNCc1ccc(-c2ccc3ncnc(Nc4ccc(OCc5cccc(F)c5)c(Cl)c4)c3c2)o1 [Lapatinib] (partner 2 µM)
Procedure, shortened: (§1)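 For relative viability, nuclei counts in treated wells were divided by those in vehicle wells. Lung cancer cell lines had been pin-tool dosed in 1536-well plates the day after seeding and cultured for 5 days, then fixed and stained in one step (final 0.05% Triton X-100, 1% formaldehyde, 1 ug/ml Hoechst) and imaged at 4×. Doses were one drug alone or a fixed anchor-drug dose plus five library-drug doses (not always all listed) in √10 steps, and values are duplicate-plate medians.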

Tosedostat + Dasatinib = compound: CC(C)C[C@@H](C(=O)N[C@H](C(=O)OC1CCCC1)c1ccccc1)[C@H](O)C(=O)NO [Tosedostat] + Cc1nc(Nc2ncc(C(=O)Nc3c(C)cccc3Cl)s2)cc(N2CCN(CCO)CC2)n1 [Dasatinib] (partner 0.075 µM)
Procedure, shortened: as §1

[1] = compound: CC1=NN=C(O1)C2=NN=C(C=C2)N3CCC(CC3)OC4=C(C=CC(=C4)F)Cl + C[C@@H](Oc1cc(-c2cnn(C3CCNCC3)c2)cnc1N)c1c(Cl)ccc(F)c1Cl [Crizotinib] (partner 1 µM)
Procedure, shortened: as §1

[2] = compound: CC1=NN=C(O1)C2=NN=C(C=C2)N3CCC(CC3)OC4=C(C=CC(=C4)F)Cl + O=C(c1cc(Cc2n[nH]c(=O)c3ccccc23)ccc1F)N1CCN(C(=O)C2CC2)CC1 [Olaparib] (partner 8 µM)
Procedure, shortened: as §1

Row | Cell Line | relative viability (Tosedostat + Lapatinib; first compound 0.02 µM) | relative viability (Tosedostat + Lapatinib; first compound 0.06325 µM) | relative viability (Tosedostat + Lapatinib; first compound 0.2 µM) | relative viability (Tosedostat + Lapatinib; first compound 0.6325 µM) | relative viability (Tosedostat + Lapatinib; first compound 2 µM) | relative viability (Tosedostat + Dasatinib; first compound 0.02 µM) | relative viability (Tosedostat + Dasatinib; first compound 0.06325 µM) | relative viability (Tosedostat + Dasatinib; first compound 0.2 µM) | relative viability (Tosedostat + Dasatinib; first compound 0.6325 µM) | relative viability (Tosedostat + Dasatinib; first compound 2 µM) | relative viability ([1]; first compound 0.253 µM) | relative viability ([1]; first compound 0.8 µM) | relative viability ([1]; first compound 2.53 µM) | relative viability ([1]; first compound 8 µM) | relative viability ([2]; first compound 0.253 µM) | relative viability ([2]; first compound 0.8 µM) | relative viability ([2]; first compound 2.53 µM) | relative viability ([2]; first compound 8 µM)
1 | NCI-H322M | 0.665 | 0.577 | 0.542 | 0.55 | 0.446 | 0.272 | 0.256 | 0.268 | 0.279 | 0.246 | 0.762 | 0.792 | 0.899 | 0.886 | 0.746 | 0.724 | 0.817 | 0.732
2 | NCI-H358 | 0.514 | 0.454 | 0.374 | 0.407 | 0.456 | 0.169 | 0.183 | 0.208 | 0.211 | 0.208 | 0.522 | 0.403 | 0.509 | 0.466 | 0.296 | 0.275 | 0.321 | 0.26
3 | NCI-H460 | 1.13 | 0.915 | 1.07 | 0.921 | 0.999 | 0.601 | 0.644 | 0.57 | 0.459 | 0.498 | 0.359 | 0.301 | 0.311 | 0.296 | 0.15 | 0.155 | 0.199 | 0.198
4 | NCI-H520 | 0.815 | 0.984 | 0.96 | 0.923 | 1.03 | 0.146 | 0.202 | – | 0.243 | 0.28 | 0.692 | 0.707 | 0.694 | 0.632 | 0.308 | 0.346 | 0.294 | 0.259
5 | NCI-H596 | 1.21 | 1.16 | 1 | 1.22 | 1.07 | 0.648 | 0.623 | 0.614 | 0.656 | 0.619 | – | 0.95 | 0.963 | 0.795 | 0.541 | 0.732 | 0.752 | 0.615
6 | NCI-H647 | 1.17 | 1.11 | 1.07 | 0.926 | 0.969 | 0.212 | 0.211 | 0.218 | 0.197 | 0.151 | 0.664 | 0.691 | 0.726 | 0.528 | 0.232 | 0.157 | 0.173 | 0.0657
7 | NCI-H650 | 1.19 | 0.996 | 0.608 | 0.775 | 0.489 | 0.471 | 0.49 | 0.424 | 0.422 | 0.388 | 0.691 | 0.692 | 0.64 | 0.818 | 0.39 | 0.227 | 0.407 | 0.382
8 | NCI-H661 | 0.428 | 0.479 | 0.449 | 0.591 | 0.425 | 1.02 | 0.834 | 0.846 | 0.815 | 0.695 | 0.609 | 0.661 | 0.711 | 0.747 | 0.619 | 0.542 | 0.583 | 0.586
9 | NCI-H727 | 1.11 | 0.589 | 0.631 | 0.657 | 0.575 | 0.404 | 0.339 | – | 0.311 | 0.29 | 0.725 | 0.901 | 0.672 | 0.683 | 0.68 | 0.7 | 0.656 | 0.665
10 | NCI-H838 | 0.93 | 0.914 | 0.961 | 0.904 | 1.24 | 0.317 | 0.342 | 0.299 | 0.329 | 0.27 | 0.643 | 0.679 | 0.731 | 0.683 | 0.536 | 0.595 | 0.637 | 0.591
11 | NCI-H1355 | 1.02 | 1.03 | 0.88 | 0.913 | 0.915 | 0.758 | 0.681 | 0.728 | 0.592 | 0.57 | – | – | 0.985 | 0.959 | 0.378 | 0.422 | 0.75 | 0.596
12 | NCI-H1437 | 0.749 | 0.809 | 0.744 | 0.727 | 0.661 | 0.488 | 0.46 | 0.415 | 0.323 | 0.327 | 0.605 | 0.506 | 0.55 | 0.535 | 0.416 | 0.516 | 0.449 | 0.403
13 | NCI-H1650 | 0.983 | 0.828 | 0.863 | 0.997 | 0.918 | 0.329 | 0.362 | 0.346 | 0.448 | 0.311 | – | 0.748 | 0.806 | 0.803 | 0.516 | 0.645 | 0.642 | 0.597
14 | NCI-H1651 | 0.883 | 0.81 | 0.77 | 0.816 | 0.697 | 0.566 | 0.384 | 0.411 | 0.399 | 0.338 | 0.753 | 0.659 | 0.656 | 0.669 | 0.165 | 0.162 | 0.17 | 0.162
15 | NCI-H1666 | 0.841 | 0.853 | 0.669 | 0.735 | 0.618 | 0.771 | 0.871 | 0.854 | 0.848 | 0.874 | 0.612 | 0.621 | 0.636 | 0.629 | 0.692 | 0.728 | 0.655 | 0.664

— the supplement of paper PMC10307832
